The text below walks through data of patent US12662451B2, “Chemical compounds and uses thereof” (GLAXOSMITHKLINE INTELLECTUAL PROPERTY (NO.4) LIMITED, priority 2023, dated 2026).

The target of the first test is T1, recombinant full-length WRN protein (1-1432) (Homo sapiens, UniProt Q14191).
T1 construct: recombinant full-length WRN protein (1-1432)
T1 sequence (Q14191 whole entry): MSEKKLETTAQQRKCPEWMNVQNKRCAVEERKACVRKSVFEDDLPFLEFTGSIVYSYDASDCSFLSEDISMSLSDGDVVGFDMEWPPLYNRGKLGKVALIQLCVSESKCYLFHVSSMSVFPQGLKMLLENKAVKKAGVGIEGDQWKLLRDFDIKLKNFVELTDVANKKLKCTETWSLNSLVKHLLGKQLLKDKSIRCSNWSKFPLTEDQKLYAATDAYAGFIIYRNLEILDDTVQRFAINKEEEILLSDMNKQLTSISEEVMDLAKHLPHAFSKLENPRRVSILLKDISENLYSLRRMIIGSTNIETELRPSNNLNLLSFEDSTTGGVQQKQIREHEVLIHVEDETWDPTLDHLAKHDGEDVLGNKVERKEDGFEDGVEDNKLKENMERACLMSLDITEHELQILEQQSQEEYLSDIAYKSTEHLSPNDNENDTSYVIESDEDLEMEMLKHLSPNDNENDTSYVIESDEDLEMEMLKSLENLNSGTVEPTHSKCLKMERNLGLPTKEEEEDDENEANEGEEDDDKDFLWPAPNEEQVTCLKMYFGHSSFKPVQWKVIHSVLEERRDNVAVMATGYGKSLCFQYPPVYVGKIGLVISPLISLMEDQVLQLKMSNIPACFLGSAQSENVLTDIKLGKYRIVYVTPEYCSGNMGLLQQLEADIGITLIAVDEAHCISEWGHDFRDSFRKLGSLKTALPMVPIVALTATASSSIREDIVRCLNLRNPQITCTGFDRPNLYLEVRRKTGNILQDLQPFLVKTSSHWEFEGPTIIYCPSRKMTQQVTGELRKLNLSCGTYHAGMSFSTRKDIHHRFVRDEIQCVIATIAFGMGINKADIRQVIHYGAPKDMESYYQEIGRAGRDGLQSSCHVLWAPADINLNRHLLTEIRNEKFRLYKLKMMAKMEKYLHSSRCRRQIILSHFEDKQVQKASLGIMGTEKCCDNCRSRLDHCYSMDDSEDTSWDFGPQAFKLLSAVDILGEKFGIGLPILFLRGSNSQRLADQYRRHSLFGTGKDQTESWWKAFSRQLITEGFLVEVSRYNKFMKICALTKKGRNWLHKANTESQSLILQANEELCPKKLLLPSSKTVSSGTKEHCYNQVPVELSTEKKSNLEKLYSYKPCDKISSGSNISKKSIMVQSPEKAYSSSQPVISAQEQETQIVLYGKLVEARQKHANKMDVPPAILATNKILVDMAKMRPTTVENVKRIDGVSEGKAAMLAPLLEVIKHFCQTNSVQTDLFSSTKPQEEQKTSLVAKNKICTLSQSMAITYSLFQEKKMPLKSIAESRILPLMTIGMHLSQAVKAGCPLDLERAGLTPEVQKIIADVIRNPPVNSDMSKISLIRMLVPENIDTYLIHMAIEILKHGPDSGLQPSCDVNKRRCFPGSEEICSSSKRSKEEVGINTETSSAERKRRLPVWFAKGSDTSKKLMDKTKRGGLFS
Briefly: WRN unwinding activity, fluorogenic 384-well assay (Example A). It is filed as biochemical. The note with it: WRN unwinding activity, 4 hr; Table 2; read-out: 4 hr UNW pIC50 (converted). The method, then: Functional WRN unwinding activity can be measured using a fluorogenic plate based 384 well assay configured to measure the separation of labeled double stranded DNA substrate. Compounds were dosed out in neat DMSO with a 1:3 serial dilution scheme. 100 nL of compound was stamped into Greiner low volume black assay plates (Greiner Cat #784076) using the Echo Acoustic Dispenser to generate assay ready plates. All solutions were prepared in assay buffer (25 mM TRIS (pH8.0), 5 mM NaCl, 2 mM MgCl2, 1 mM DTT, 0.05% BSA) for this 10 μL low volume reaction. To prepare the solutions, a 2×WRN Enzyme cocktail was made containing 200 pM of recombinant full-length WRN protein (1-1432). A 2× Substrate cocktail was made to consist of both 200 μM ATP (any ultrapure ATP sample) and 12 nM of the fluorescent quenched labeled double stranded DNA oligomer (IDT Custom synthesis; 5′-5IABkFQ (SEQ ID NO. 1)/GCACTGGCCGTCGTTTTACGGTCGTGACT-3′ (SEQ ID NO. 2): 5′-TTTTTTACTTAACGACGGCCAGTGC (SEQ ID NO. 3)/36-TAMTSP/-3′ (SEQ ID NO. 4)). To start the reaction, 5 μL of assay buffer was added to a single column to serve as the low control. Following this, 5 μL of 2×WRN Enzyme was added in all wells except the buffer low control wells. The reaction plate was covered and incubated at ambient temperature for 4 hours to allow for time dependent inhibition if it existed. After 4 hours, the addition of 5 μL of 2×-ATP/DNA substrate cocktail was added across all wells of the assay plate. This initiated the reaction, as the plate was incubated at ambient temperature for 60 minutes for the unwinding reaction to occur. A 10 mM EDTA solution was prepared and added at 5 μL across the entire plate after 60 minutes to quench the samples for an endpoint measurement. Fluorescent intensity was measured using excitation and emission wavelengths of 525 nm and 598 nm, respectively. High florescent intensity (DMSO with buffer) represents full inhibition of unwinding activity and low florescent intensity (DMSO with enzyme) represents no inhibition of unwinding activity. The potency of the compounds was determined using a four-parameter inhibition model to generate pIC50, Hill Slope, maximum inhibition (see Table 2).
For `O=C(O)[C@@H]1[C@@H](c2ccc([C@H]3CCCOCC3)cc2)CCC[C@H]1C(=O)Nc1ccc(C(F)(F)F)cc1F` (racemic) [Example 59, 1:1 Mixture of (1R,2R,6S)-2-((2-fluoro-4-(trifluoromethyl)phenyl)carbamoyl)-6-(4-((S)-oxepan-4-yl)phenyl)cyclohexane-1-carboxylic acid AND (1R,2R,6S)-2-((2-fluoro-4-(trifluoromethyl)phenyl)carbamoyl)-6-(4-((R)-oxepan-4-yl)phenyl)cyclohexane-1-carboxylic acid], the IC50 is 794 nM.

Take `O=C(O)[C@@H]1[C@@H](c2ccc([C@H]3CC34CCOCC4)cc2)CCC[C@H]1C(=O)Nc1ccc(C(F)(F)F)cc1F` (racemic) [Example 65, 1:1 Mixture of (1R,2S,6R)-2-(4-((S)-6-oxaspiro[2.5]octan-1-yl)phenyl)-6-((2-fluoro-4-(trifluoromethyl)phenyl)carbamoyl)cyclohexane-1-carboxylic acid AND (1R,2S,6R)-2-(4-((R)-6-oxaspiro[2.5]octan-1-yl)phenyl)-6-((2-fluoro-4-(trifluoromethyl)phenyl)carbamoyl)cyclohexane-1-carboxylic acid]: the IC50 was 50.1 nM.

For `C=CC1COC[C@@H]1c1ccc([C@H]2CCC[C@@H](C(=O)Nc3ccc(C(F)(F)F)cc3F)[C@@H]2C(=O)O)cc1` (mixture of isomers) [Example 66, 1:1 Mixture of (1R,2R,6S)-2-((2-fluoro-4-(trifluoromethyl)phenyl)carbamoyl)-6-(4-((3S)-4-vinyltetrahydrofuran-3-yl)phenyl)cyclohexane-1-carboxylic acid AND (1R,2R,6S)-2-((2-fluoro-4-(trifluoromethyl)phenyl)carbamoyl)-6-(4-((3R)-4-vinyltetrahydrofuran-3-yl)phenyl)cyclohexane-1-carboxylic acid], the IC50 was 2510 nM.

On to `COC(=O)[C@H]1C[C@H]1c1ccc([C@H]2CCC[C@@H](C(=O)Nc3ccc(C(F)(F)F)cc3F)[C@@H]2C(=O)O)cc1` (racemic) [Example 67, 1:1 Mixture of (1R,2R,6S)-2-((2-fluoro-4-(trifluoromethyl)phenyl)carbamoyl)-6-(4-((1R,2S)-2-(methoxycarbonyl)cyclopropyl)phenyl)cyclohexane-1-carboxylic acid AND (1R,2R,6S)-2-((2-fluoro-4-(trifluoromethyl)phenyl)carbamoyl)-6-(4-((1S,2S)-2-(methoxycarbonyl)cyclopropyl)phenyl)cyclohexane-1-carboxylic acid], for which the IC50 is 2000 nM.

On to `O=C(O)[C@@H]1[C@@H](c2ccc([C@H]3[C@@H]4CNCC[C@@H]43)cc2)CCC[C@H]1C(=O)Nc1ccc(C(F)(F)F)cc1F` (racemic) [Example 70], for which the IC50 was 15800 nM.

As for `Cc1nc2cc(S(=O)(=O)N(C)c3ccc([C@H]4CCC[C@H](C(=O)Nc5ccc(C(C)C)cc5)[C@@H]4C(=O)O)cc3)ccc2n1C` (racemic) [Example 72, rac-(1R,2S,6S)-2-((4-isopropylphenyl)carbamoyl)-6-(4-((N,1,2-trimethyl-1H-benzo[d]imidazole)-5-sulfonamido)phenyl)cyclohexane-1-carboxylic acid], the IC50 was 3.16 nM.

With `Cc1nc2cc(S(=O)(=O)N(C)c3ccc([C@H]4CCC[C@@H](C(=O)NC56CC(C)(C5)C6)[C@@H]4C(=O)O)cc3)ccc2n1C` (racemic) [Example 178], the IC50 was 5010 nM.

As for `Cc1nc2cc(S(=O)(=O)N(C)c3ccc([C@H]4CCC[C@@H](CNc5ccc(C(C)C)cc5)[C@@H]4C(=O)O)cc3)ccc2n1C` (racemic) [Example 200, rac-(1R,2R,6S)-2-(((4-isopropylphenyl)amino)methyl)-6-(4-((N,1,2-trimethyl-1H-benzo[d]imidazole)-5-sulfonamido)phenyl)cyclohexane-1-carboxylic acid], the IC50 was 12.6 nM.

As for `Cc1nc2cc(S(=O)(=O)N(C)c3ccc([C@H]4CCC[C@@H](CN5CC6(C5)CC(F)(F)C6)[C@@H]4C(=O)O)cc3)ccc2n1C` (racemic) [Example 201, rac-(1R,2R,6S)-2-((6,6-difluoro-2-azaspiro[3.3]heptan-2-yl)methyl)-6-(4-((N,1,2-trimethyl-1H-benzo[d]imidazole)-5-sulfonamido)phenyl)cyclohexane-1-carboxylic acid], the IC50 is 25100 nM.

Regarding `Cc1nc2cc(S(=O)(=O)N(C)c3ccc([C@H]4CCC[C@@H](CN(C)C5CCOCC5)[C@@H]4C(=O)O)cc3)ccc2n1C` (racemic) [Example 202, rac-(1R,2R,6S)-2-((methyl(tetrahydro-2H-pyran-4-yl)amino)methyl)-6-(4-((N,1,2-trimethyl-1H-benzo[d]imidazole)-5-sulfonamido)phenyl)cyclohexane-1-carboxylic acid], the IC50 was 100000 nM.

With `O=C(O)[C@@H]1[C@@H](c2ccc(N3CCCCC3)cc2)CCC[C@H]1C(=O)Nc1ccc(C(F)(F)F)cc1F` (racemic) [Example 222, rac-(1R,2R,6S)-2-((2-fluoro-4-(trifluoromethyl)phenyl)carbamoyl)-6-(4-(piperidin-1-yl)phenyl)cyclohexane-1-carboxylic acid], the IC50 is 501 nM.

With `O=C(O)[C@@H]1[C@@H](c2ccc(N3CCC4(CC3)CO4)cc2)CCC[C@H]1C(=O)Nc1ccc(C(F)(F)F)cc1F` (racemic) [Example 228, rac-(1R,2S,6R)-2-(4-(1-oxa-6-azaspiro[2.5]octan-6-yl)phenyl)-6-((2-fluoro-4-(trifluoromethyl)phenyl)carbamoyl)cyclohexane-1-carboxylic acid], the IC50 is 6310 nM.

In the case of `COCCOc1cc([C@H]2CCC[C@@H](C(=O)Nc3ccc(C(F)(F)F)cc3F)[C@@H]2C(=O)O)ccc1C(F)(F)F` (racemic) [Example 234, rac-(1R,2R,6S)-2-((2-fluoro-4-(trifluoromethyl)phenyl)carbamoyl)-6-(3-(2-methoxyethoxy)-4-(trifluoromethyl)phenyl)cyclohexane-1-carboxylic acid], the IC50 was 1000 nM.

`COc1cc(C(F)(F)F)ccc1[C@H]1CCC[C@@H](C(=O)Nc2ccc(C(F)(F)F)cc2F)[C@@H]1C(=O)O` (racemic) [Example 237, rac-(1R,2R,6S)-2-((2-fluoro-4-(trifluoromethyl)phenyl)carbamoyl)-6-(2-methoxy-4-(trifluoromethyl)phenyl)cyclohexane-1-carboxylic acid]: the IC50 was 200 nM.

Turning to `CC(C)(O)C#Cc1cc([C@H]2CCC[C@@H](C(=O)Nc3ccc(C(F)(F)F)cc3F)[C@@H]2C(=O)O)ccc1C(F)(F)F` (racemic) [Example 239, rac-(1R,2R,6S)-2-((2-fluoro-4-(trifluoromethyl)phenyl)carbamoyl)-6-(3-(3-hydroxy-3-methylbut-1-yn-1-yl)-4-(trifluoromethyl)phenyl)cyclohexane-1-carboxylic acid], the IC50 was 251 nM.

The test system of another test is SW48 human colorectal cancer cells (MSI-H cancer cells). Briefly: SW48 cell viability, CellTiter-Glo, 120 hours (Example B). The note with it: Homo sapiens, SW48, 120 h, read-out: SW48 pCC50, SW48 cell viability, 120 hours incubation (converted); Table 2. (In general: In ATP-based viability assays light output follows the ATP content of the culture.)
For the molecule `Cc1nc2cc(S(=O)(=O)N(C)c3ccc([C@H]4CN(CC(F)(F)F)C[C@@H](C(=O)Nc5ccc(C(F)(F)F)cc5F)[C@@H]4C(=O)O)cc3)ccc2n1C` (relative stereo) [Example 358, rel-(3R,4S,5R)-3-((2-fluoro-4-(trifluoromethyl)phenyl)carbamoyl)-1-(2,2,2-trifluoroethyl)-5-(4-((N,1,2-trimethyl-1H-benzo[d]imidazole)-5-sulfonamido)phenyl)piperidine-4-carboxylic acid], the CC50 is 631 nM.

With `Cc1nc2cc(S(=O)(=O)N(C)c3ccc([C@H]4C[C@H](N5CCC[C@H](F)C5)C[C@@H](C(=O)Nc5ccc(C(F)(F)F)cc5F)[C@@H]4C(=O)O)cc3)ccc2n1C` (stereo in doubt) [Example 351, rel-(1R*,2R*,4S*,6S*)-2-((2-fluoro-4-(trifluoromethyl)phenyl)carbamoyl)-4-((S)-3-fluoropiperidin-1-yl)-6-(4-((N,1,2-trimethyl-1H-benzo[d]imidazole)-5-sulfonamido)phenyl)cyclohexane-1-carboxylic acid], the CC50 was 10000 nM.

For `Cc1nc2cc(S(=O)(=O)N(C)c3ccc([C@@H]4C[C@@H]5COC[C@@H]5[C@H](C(=O)Nc5ccc(C(F)(F)F)cc5F)[C@H]4C(=O)O)cc3)ccc2n1C` (stereo in doubt) [Example 391, rel-(3aR,4R,5R,6S,7aR)-4-((2-fluoro-4-(trifluoromethyl)phenyl)carbamoyl)-6-(4-((N,1,2-trimethyl-1H-benzo[d]imidazole)-5-sulfonamido)phenyl)octahydroisobenzofuran-5-carboxylic acid], the CC50 is 20000 nM.
